According to patent publication US4129737A, “Process for the preparation of an 8-alkyl-5-oxo-5,8-dihydro-pyrido(2,3-d)pyrimidine-6-carboxylic acid” (priority 1972, dated 1978):
In brackets after ≈: the same amount, converted by molar mass.

How the values were obtained:
Assay in all cases: Average MIC, solid medium (nutrient agar) dilution method
[1] = system: Sh. sonnei I.P.S.; type: cell-based; conditions: Shigella sonnei, 18 h, average of five determinations, read-out: minimum inhibitory concentration, average
[2] = system: Esch 111 B4; type: cell-based; conditions: 18 h, average of five determinations, read-out: minimum inhibitory concentration, average
[3] = system: Ps. aeruginosa A22; conditions: Pseudomonas aeruginosa, A22, 18 h, read-out: minimum inhibitory concentration, average
[4] = system: Arizona 6211; conditions: 18 h, read-out: minimum inhibitory concentration, average
[5] = system: Streptococcus DM19; conditions: DM19, 18 h, read-out: minimum inhibitory concentration, average
[6] = system: Staphylococcus 9144; conditions: Staphylococcus, 9144, 18 h, read-out: minimum inhibitory concentration, average
[7] = system: Providencia 0223; conditions: Providencia, 0223, 18 h, read-out: minimum inhibitory concentration, average
[8] = system: Esch. coli. 54-127 OMS; conditions: Escherichia coli, 18 h, read-out: minimum inhibitory concentration, average
[9] = system: Staphylococcus 209P; conditions: 18 h, read-out: minimum inhibitory concentration, average
[10] = system: Staphylococcus SIM; conditions: 18 h, read-out: minimum inhibitory concentration, average
[11] = system: Pr. mirabilis Nig; conditions: Proteus mirabilis, 18 h, read-out: minimum inhibitory concentration, average
[12] = system: B. subtilis 6633; conditions: Bacillus subtilis, 6633, 18 h, read-out: minimum inhibitory concentration, average
[13] = system: Ps. aeruginosa 72-345; conditions: Pseudomonas aeruginosa, 72345, 18 h, read-out: minimum inhibitory concentration, average
[14] = system: Klebs. pneumoniae 10.031; conditions: Klebsiella pneumoniae, 10.031, 18 h, read-out: minimum inhibitory concentration, average
[15] = system: S. enteritidis DANYZ; conditions: Salmonella enterica, 18 h, read-out: minimum inhibitory concentration, average
[16] = system: Pr. morganii A 236; conditions: Morganella morganii, A236, 18 h, read-out: minimum inhibitory concentration, average
[17] = system: Esch. coli. LRB 45; conditions: Escherichia coli, 18 h, read-out: minimum inhibitory concentration, average
[18] = system: Bord. bronch. 4617; conditions: 18 h, read-out: minimum inhibitory concentration, average
[19] = system: S. oranienburg 10-66; conditions: Salmonella enterica, 1066, 18 h, read-out: minimum inhibitory concentration, average
[20] = system: Esch. coli. 95 I.S.M.; conditions: Escherichia coli, 18 h, read-out: minimum inhibitory concentration, average
[21] = system: Esch. coli. LRB 67; conditions: Escherichia coli, 18 h, read-out: minimum inhibitory concentration, average
[22] = system: Pr. vulgaris 12-53; conditions: Proteus vulgaris, 1253, 18 h, read-out: minimum inhibitory concentration, average
[23] = system: Streptococcus A561; conditions: A561, 18 h, read-out: minimum inhibitory concentration, average
[24] = system: Salm. typhi 0901; type: cell-based; conditions: Salmonella enterica, 18 h, read-out: minimum inhibitory concentration, average
[25] = system: Esch. coli. Cho; conditions: Escherichia coli, 18 h, read-out: minimum inhibitory concentration, average

SMILES | MIC [1] [µg/mL] | MIC [2] [µg/mL] | MIC [3] [µg/mL] | MIC [4] [µg/mL] | MIC [5] [µg/mL] | MIC [6] [µg/mL] | MIC [7] [µg/mL] | MIC [8] [µg/mL] | MIC [9] [µg/mL] | MIC [10] [µg/mL] | MIC [11] [µg/mL] | MIC [12] [µg/mL] | MIC [13] [µg/mL] | MIC [14] [µg/mL] | MIC [15] [µg/mL] | MIC [16] [µg/mL] | MIC [17] [µg/mL] | MIC [18] [µg/mL] | MIC [19] [µg/mL] | MIC [20] [µg/mL] | other results
CCn1cc(C(=O)O)c(=O)c2cnc(N3CCCC3)nc21 [Example III, 2-Pyrrolidino-5-oxo-8-ethyl-5,8-dihydro-pyrido(2,3-d)-pyrimidine-6-carboxylic acid] | 10.6 (≈ 36.8 µM) | 15.6 (≈ 54.2 µM) | 100 (≈ 347 µM) | 27.5 (≈ 95.4 µM) | 100 (≈ 347 µM) | 4.04 (≈ 14 µM) | 100 (≈ 347 µM) | 15.6 (≈ 54.2 µM) | 3.42 (≈ 11.9 µM) | 15 (≈ 52 µM) | 30 (≈ 104 µM) | 1 (≈ 3.47 µM) | 75 (≈ 260 µM) | 1.2 (≈ 4.16 µM) | 21.9 (≈ 76 µM) | 0.56 (≈ 1.94 µM) | 15.6 (≈ 54.2 µM) | 80 (≈ 277 µM) | 100 (≈ 347 µM) | 32.5 (≈ 113 µM) | MIC [21]: 12.5 µg/mL (≈ 43.4 µM); MIC [22]: 5.6 µg/mL (≈ 19.4 µM); MIC [23]: 2.82 µg/mL (≈ 9.78 µM); MIC [24]: 23.7 µg/mL (≈ 82.3 µM); MIC [25]: 32.5 µg/mL (≈ 113 µM)
CCn1cc(C(=O)O)c(=O)c2ccc(C)nc21 [Nalidixic acid, nalidixic acid, reference compound] | 1.58 (≈ 6.8 µM) | 2.34 (≈ 10.1 µM) | 60 (≈ 258 µM) | 3.12 (≈ 13.4 µM) | 100 (≈ 431 µM) | 25 (≈ 108 µM) | 100 (≈ 431 µM) | 2.15 (≈ 9.26 µM) | 16.2 (≈ 69.9 µM) | 56.2 (≈ 242 µM) | 3.42 (≈ 14.7 µM) | 72 (≈ 310 µM) | 60 (≈ 258 µM) | 1.4 (≈ 6.03 µM) | 2.75 (≈ 11.8 µM) | 0.36 (≈ 1.55 µM) | 3.1 (≈ 13.3 µM) | 25 (≈ 108 µM) | 100 (≈ 431 µM) | 21.9 (≈ 94.2 µM) | MIC [21]: 2.7 µg/mL (≈ 11.6 µM); MIC [22]: 0.88 µg/mL (≈ 3.79 µM); MIC [23]: 18.7 µg/mL (≈ 80.7 µM); MIC [24]: 2.7 µg/mL (≈ 11.6 µM); MIC [25]: 4.04 µg/mL (≈ 17.4 µM)
